Assay results published in the supplement of paper PMC11208160.

experiment: recombinant barcode read abundance after kanamycin selection (control-corrected) (log10(CPM+1)); higher = more efficient recombination; sequences stand for … in AGTGCAGAGAAAATCGGCCAGTTTTCTCTGCCTGCAGTCCGCATGCCGT…AGATTTATGCAGCGGACTGCCTTTCTCCCAAAGTGATAAACCGGACAGTATCATGGACCGGTTTTCCCGGTAATCCGTATTTGCAAGGTTGGTTTCACT; site = the 11-nt target
Outline: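 This pooled E. coli screen matched targets with IS621 bridge RNA target-binding loops. Plating was done in duplicate on chloramphenicol/ampicillin LB agar as a control and on chloramphenicol/ampicillin/kanamycin plus 0.1 mM IPTG. Recombination efficiency reflects barcode counts at recombinant junctions as counts per million, averaged and control-corrected. The figures are log10(CPM+1).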
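Also: IS621 recombinase and bridge RNA in Escherichia coli cells.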

First: GGACGTGCTTGGGTTCTAACCTGTTGCCT (site CTCTCGTCTCC)
Second: GGACGTGCTTGGGTTCTAACCTGTTGCCT (site GGACGTGCTAG)
The “recombinant barcode read abundance (log10)” value of the first is lower: 0.0482 for the first, 1.92 for the second.

Going from “GGACTAACTTGGGTTCTAACCTGTTGCCT (site AGACTAACTAA)” to “GGACTAACTTGGGTTCTAACCTGTTGCCT (site GGACTAACTAG)”, the “recombinant barcode read abundance (log10)” value rises from 0.126 to 1.95.

Compared with “GGAGAGACTTGGGTTCTAACCTGTTGCAT (site ACGTGTCCTCC)”, “GGAGAGACTTGGGTTCTAACCTGTTGCAT (site GGAGAGACTAT)” is higher in “recombinant barcode read abundance (log10)” value: 0.149 for the first, 2.79 for the second.

Compared with “GGAGATTCTTGGGTTCTAACCTGTTGCCT (site GGAGATTCTAG)”, “GGAGATTCTTGGGTTCTAACCTGTTGCCT (site GGAGTTGCTAG)” is lower in “recombinant barcode read abundance (log10)” value: 2.22 for the first, 0.0142 for the second.

First: GGAGCTCCTTGGGTTCTAACCTGTTGCCA (site CGAGCTCCTGG)
Second: GGAGCTCCTTGGGTTCTAACCTGTTGCCA (site GGAGCTCCTTG)
The “recombinant barcode read abundance (log10)” value of the first is lower: 0.082 for the first, 0.371 for the second.

First: GGAGGGACTTGGGTTCTAACCTGTTGCGT (site GGAGGGACTAC)
Second: GGAGGGACTTGGGTTCTAACCTGTTGCGT (site GGTCGGACTAC)
The “recombinant barcode read abundance (log10)” value of the first is higher: 2.97 for the first, 0.0283 for the second.

First: GGAGTCACTTGGGTTCTAACCTGTTGCGG (site GGAGTCACTCC)
Second: GGAGTCACTTGGGTTCTAACCTGTTGCGG (site TTGACACCTAG)
The “recombinant barcode read abundance (log10)” value of the first is higher: 2.69 for the first, 0.189 for the second.

First: GGAGTGACTTGGGTTCTAACCTGTTGCTA (site GGAGTGACTAA)
Second: GGAGTGACTTGGGTTCTAACCTGTTGCTA (site GGAGTGACTTA)
The “recombinant barcode read abundance (log10)” value of the first is lower: 0.183 for the first, 1.61 for the second.

Going from “GGATAGCCTTGGGTTCTAACCTGTTGCTT (site GGATAGCCTAA)” to “GGATAGCCTTGGGTTCTAACCTGTTGCTT (site GGATGGACTAA)”, the “recombinant barcode read abundance (log10)” value falls from 0.939 to 0.17.

First: GGATATACTTGGGTTCTAACCTGTTGCCT (site GGATATACTAG)
Second: GGATATACTTGGGTTCTAACCTGTTGCCT (site GGATTTACTAG)
The “recombinant barcode read abundance (log10)” value of the first is higher: 1.47 for the first, 0.186 for the second.

First: GGATATCCTTGGGTTCTAACCTGTTGCTT (site CAGGTGACTCC)
Second: GGATATCCTTGGGTTCTAACCTGTTGCTT (site GGATATCCTAA)
The “recombinant barcode read abundance (log10)” value of the first is lower: 0 for the first, 0.284 for the second.

First: GGATCCTCTTGGGTTCTAACCTGTTGCCG (site GGATCCTCTCG)
Second: GGATCCTCTTGGGTTCTAACCTGTTGCCG (site GTTTCCTCTCG)
The “recombinant barcode read abundance (log10)” value of the first is higher: 1.45 for the first, 0.0317 for the second.

Going from “GGATGCACTTGGGTTCTAACCTGTTGCCA (site GGATACACTTG)” to “GGATGCACTTGGGTTCTAACCTGTTGCCA (site GGATCCACTTG)”, the “recombinant barcode read abundance (log10)” value falls from 0.237 to 0.00874.

First: GGATGCACTTGGGTTCTAACCTGTTGCCA (site GGATGCACTTG)
Second: GGATGCACTTGGGTTCTAACCTGTTGCCA (site GGATTCACTTG)
The “recombinant barcode read abundance (log10)” value of the first is higher: 0.953 for the first, 0.319 for the second.

Compared with “GGATGTCCTTGGGTTCTAACCTGTTGCGT (site CTATGTCCTAC)”, “GGATGTCCTTGGGTTCTAACCTGTTGCGT (site GGATGTCCTAC)” is higher in “recombinant barcode read abundance (log10)” value: 0.29 for the first, 1.95 for the second.

“GGATTCACTTGGGTTCTAACCTGTTGCCA (site GGATACACTTG)” and “GGATTCACTTGGGTTCTAACCTGTTGCCA (site GGATCCACTTG)” are within 0.2 log units of each other in “recombinant barcode read abundance (log10)” value: 0.0986 for the first, 0.0631 for the second.

“GGATTCACTTGGGTTCTAACCTGTTGCCA (site GGATGCACTTG)” and “GGATTCACTTGGGTTCTAACCTGTTGCCA (site GGATTCACTTG)” are within 0.2 log units of each other in “recombinant barcode read abundance (log10)” value: 0.925 for the first, 0.992 for the second.

“GGCACGACTTGGGTTCTAACCTGTTGCCT (site GGCACAACTAG)” and “GGCACGACTTGGGTTCTAACCTGTTGCCT (site GGCACCACTAG)” are within 0.2 log units of each other in “recombinant barcode read abundance (log10)” value: 0.274 for the first, 0.221 for the second.

Compared with “GGCACGACTTGGGTTCTAACCTGTTGCCT (site GGCACGACTAG)”, “GGCACGACTTGGGTTCTAACCTGTTGCCT (site GGCACTACTAG)” is lower in “recombinant barcode read abundance (log10)” value: 0.323 for the first, 0.0541 for the second.

“GGCACTCCTTGGGTTCTAACCTGTTGCCT (site GGCACTCCTAG)” and “GGCACTCCTTGGGTTCTAACCTGTTGCCT (site GGCATTCCTAG)” are within 0.2 log units of each other in “recombinant barcode read abundance (log10)” value: 0.351 for the first, 0.171 for the second.

Going from “GGCACTGCTTGGGTTCTAACCTGTTGCCT (site GGCACAGCTAG)” to “GGCACTGCTTGGGTTCTAACCTGTTGCCT (site GGCACCGCTAG)”, the “recombinant barcode read abundance (log10)” value falls from 0.332 to 0.123.

“GGCACTGCTTGGGTTCTAACCTGTTGCCT (site GGCACGGCTAG)” and “GGCACTGCTTGGGTTCTAACCTGTTGCCT (site GGCACTGCTAG)” are within 0.2 log units of each other in “recombinant barcode read abundance (log10)” value: 0.189 for the first, 0.34 for the second.

“GGCAGATCTTGGGTTCTAACCTGTTGCTT (site GGCAGATCTAA)” and “GGCAGATCTTGGGTTCTAACCTGTTGCTT (site GGCAGCTCTAA)” are within 0.2 log units of each other in “recombinant barcode read abundance (log10)” value: 0.193 for the first, 0.043 for the second.

First: GGCAGATCTTGGGTTCTAACCTGTTGCTT (site GGCAGGTCTAA)
Second: GGCAGATCTTGGGTTCTAACCTGTTGCTT (site GGCAGTTCTAA)
The “recombinant barcode read abundance (log10)” value of the first is lower: 0.0248 for the first, 0.9 for the second.

“GGCAGTCCTTGGGTTCTAACCTGTTGCCG (site GGCAGACCTAG)” and “GGCAGTCCTTGGGTTCTAACCTGTTGCCG (site GGCAGTCCTCG)” are within 0.2 log units of each other in “recombinant barcode read abundance (log10)” value: 0.169 for the first, 0.364 for the second.

“GGCAGTCCTTGGGTTCTAACCTGTTGCTT (site GGCAGTCCTAA)” and “GGCAGTCCTTGGGTTCTAACCTGTTGCTT (site GGCAGTCCTAG)” are within 0.2 log units of each other in “recombinant barcode read abundance (log10)” value: 0.336 for the first, 0.252 for the second.

“GGCCGGCCTTGGGTTCTAACCTGTTGCCT (site GGCCGGACTAG)” and “GGCCGGCCTTGGGTTCTAACCTGTTGCCT (site GGCCGGCCTAG)” are within 0.2 log units of each other in “recombinant barcode read abundance (log10)” value: 0.0681 for the first, 0.128 for the second.

Going from “GGCCGGCCTTGGGTTCTAACCTGTTGCCT (site GGCCGGGCTAG)” to “GGCCGGCCTTGGGTTCTAACCTGTTGCCT (site GGCCGGTCTAG)”, the “recombinant barcode read abundance (log10)” value falls from 1.02 to 0.191.

First: GGCCGGTCTTGGGTTCTAACCTGTTGCCT (site GGCCGGACTAG)
Second: GGCCGGTCTTGGGTTCTAACCTGTTGCCT (site GGCCGGCCTAG)
The “recombinant barcode read abundance (log10)” value of the first is lower: 0 for the first, 0.248 for the second.

First: GGCCGGTCTTGGGTTCTAACCTGTTGCCT (site GGCCGGGCTAG)
Second: GGCCGGTCTTGGGTTCTAACCTGTTGCCT (site GGCCGGTCTAG)
The “recombinant barcode read abundance (log10)” value of the first is lower: 0.0483 for the first, 1.78 for the second.

Going from “GGCGTAGCTTGGGTTCTAACCTGTTGCCT (site GACGTAGCTAG)” to “GGCGTAGCTTGGGTTCTAACCTGTTGCCT (site GCCGTAGCTAG)”, the “recombinant barcode read abundance (log10)” value rises from 0.416 to 0.624.

Going from “GGCGTAGCTTGGGTTCTAACCTGTTGCCT (site GGCGTAGCTAG)” to “GGCGTAGCTTGGGTTCTAACCTGTTGCCT (site GTCGTAGCTAG)”, the “recombinant barcode read abundance (log10)” value falls from 2.37 to 0.227.

First: GGCTCCTCTTGGGTTCTAACCTGTTGCCT (site AGCTCCTCTAG)
Second: GGCTCCTCTTGGGTTCTAACCTGTTGCCT (site CGCTCCTCTAG)
The “recombinant barcode read abundance (log10)” value of the first is higher: 0.849 for the first, 0.0966 for the second.
